# Structures can show the parent of a compound that is named as a salt. Where two headings read alike, the source gives them in different places.
# Legend:
# [1] = molecular target: Kv11.1 (hERG) ion channel (Homo sapiens (Human), UniProt Q12809); type: cell-based; conditions: ratio of hERG Ki (patch clamp) to pERK IC50 in KYSE520
# Experimental: Inhibition of the ion channel hErg (or Kv11.1) current causes QT interval prolongation resulting in potentially fatal ventricular tachyarrhythmia called Torsade de Pointes.
# hERG ion channel activity was assessed using a patch clamp technique in stable Kv11.1 (hERG) transfected human embryonic kidney cell line (HEK293). Whole cell recordings were carried out with an automated patch clamp device Patchliner™ from Nanion Technologies, Munich following manufacturer recommendation. Different concentrations of the test compound or reference, quinidine, were applied to whole cells suspension and current was measured using a pulse pattern with fixed amplitudes.
# [2] = molecular target: Full length SHP2 protein (Recombinant Human SHP-2) (Homo sapiens, UniProt Q06124); assay: SHP2 biochemical assay (DiFMUP substrate, activating peptide IRSI_2pY)
# Sequence of Full length SHP2 protein (Recombinant Human SHP-2) (Q06124 2-593 limits assumed): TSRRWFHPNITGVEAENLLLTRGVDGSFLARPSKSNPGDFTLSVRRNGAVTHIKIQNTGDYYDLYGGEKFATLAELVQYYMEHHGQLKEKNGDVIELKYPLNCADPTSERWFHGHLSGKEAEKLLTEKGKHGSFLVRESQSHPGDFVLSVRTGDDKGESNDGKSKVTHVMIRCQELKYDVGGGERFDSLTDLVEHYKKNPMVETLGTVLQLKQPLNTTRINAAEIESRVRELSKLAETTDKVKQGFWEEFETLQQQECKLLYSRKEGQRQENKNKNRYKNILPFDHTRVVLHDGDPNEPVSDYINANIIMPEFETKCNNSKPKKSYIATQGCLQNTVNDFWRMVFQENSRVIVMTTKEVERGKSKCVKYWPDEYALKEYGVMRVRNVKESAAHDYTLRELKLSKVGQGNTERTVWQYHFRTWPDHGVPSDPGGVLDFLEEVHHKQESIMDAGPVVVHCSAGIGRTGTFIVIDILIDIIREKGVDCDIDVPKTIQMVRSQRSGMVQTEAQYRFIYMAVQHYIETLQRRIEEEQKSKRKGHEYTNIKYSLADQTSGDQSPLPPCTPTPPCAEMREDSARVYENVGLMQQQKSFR
# Experimental: The inhibition of SHP2 by compounds of the invention was monitored using the surrogate substrate DiFMUP after protein activation by a peptide bearing two appropriately spaced phosphotyrosine. […] The generation of the DiFMU product by activated SHP2 was monitored through Fluorescence measurement with a PerkinElmer Envision reader.
# The inhibitor dose response curves were analyzed with Genedata Screener.
# [3] = test system: pERK level in MDA-MB-468 cells; assay: p-Erk cellular assay in MDA-MB-468 (Mesoscale); type: cell-based; conditions: 2 h incubation, read-out: pERK1/2 in MDA-MB-468 IC50
# Experimental: (§1) p-Erk Cellular Assay in MDA-MB-468 and KYSE520:
# (§2) The effect of SHP2 inhibitors on pERK level was assessed using phospho-specific antibody using Mesoscale quantification platform. For measuring change in pERK levels using mesoscale, 30,000 cells of MDA MB468 and KYSE520 cells were plated in 96-well tissue culture treated plate in 175 ul volume of media. After an overnight incubation at 37° C., various SHP2 inhibitors were added in different concentration to each well maintaining duplicate wells across plates and incubated with compounds for 2 h at 37° C. followed by a wash with ice cold PBS buffer. The cells were then lysed in lysis buffer and processed and analyzed for p-ERK/ERK as per manufacturer's instructions (Mesoscale discovery, cat No. K15107D-3).
# [4] = Pharmacokinetics in female CD1 mice (oral / intravenous); type: in vivo; conditions: mouse PK; for clearance / Vd: female, CD1, plasma, intravenous; for Vd: read-out: Vd ss
# Experimental: Female CD1 mice (N=3) received a single oral (gavage) or a single intravenous (bolus) injection of compound. […] Consecutive blood samples were taken sub-lingually under isofluorane inhalation from animals after 0.083 (IV), 0.25, 0.5, 1, 2, 4, 6 and 24 h and were further processed to obtain plasma. Samples were protein precipitated and analyzed by LC/MS/MS.
# [5] = test system: pERK level in KYSE520 cells; assay: p-Erk cellular assay in KYSE520 (Mesoscale); type: cell-based; conditions: 2 h incubation, read-out: pERK1/2 in KYSE520 IC50
# Experimental: as §1, §2
# [6] = molecular target: T1, auto-activated mutant protein SHP2 E76K (Homo sapiens (Human), UniProt Q06124, E76K); assay: SHP2 E76K mutant biochemical assay with activating peptide IRSI_2pY; conditions: SHP2 E76K mutant with activating peptide IRSI_2pY 140 nM; read-out: SHP-2 E76Z IC50 peptide
# T1 sequence (Q06124 whole entry E76K): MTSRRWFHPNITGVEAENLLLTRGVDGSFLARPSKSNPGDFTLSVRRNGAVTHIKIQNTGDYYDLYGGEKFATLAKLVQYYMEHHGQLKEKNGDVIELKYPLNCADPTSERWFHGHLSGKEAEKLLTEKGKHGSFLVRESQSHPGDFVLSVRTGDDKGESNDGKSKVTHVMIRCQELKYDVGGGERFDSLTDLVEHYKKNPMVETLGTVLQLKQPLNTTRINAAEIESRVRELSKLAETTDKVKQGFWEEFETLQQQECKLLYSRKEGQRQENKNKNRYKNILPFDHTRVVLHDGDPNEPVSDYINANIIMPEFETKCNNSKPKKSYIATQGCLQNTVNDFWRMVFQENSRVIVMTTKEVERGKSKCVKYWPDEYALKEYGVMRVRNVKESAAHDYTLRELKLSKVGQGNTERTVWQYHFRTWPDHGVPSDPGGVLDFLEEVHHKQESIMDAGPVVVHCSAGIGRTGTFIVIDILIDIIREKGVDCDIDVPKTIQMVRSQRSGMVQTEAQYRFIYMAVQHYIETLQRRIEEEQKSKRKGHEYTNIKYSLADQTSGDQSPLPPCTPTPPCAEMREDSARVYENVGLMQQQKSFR
# Experimental: (§3) The inhibition of SHP2 by compounds of the invention was monitored using the surrogate substrate DiFMUP after protein activation by a peptide bearing two appropriately spaced phosphotyrosine. Full length SHP2 protein (Recombinant HumanSHP-2, E. coli derived Ser2Arg593, N-terminal 6His tag from R&D systems; […]) was incubated with activating peptide, IRSI_2pY (New England Peptide, 140 nM) and DiFMUP (molecular probes, 80 uM) at RT in buffer (HEPES pH 7.2 60 mM, DDT 5 mM, KCl 75 mM, NaCl 75 mM, EDTA 1 mM, Tween 20 0.05%) in presence of compound (10 concentrations range, top concentration 50 μM) for 60 min. The generation of the DiFMU product by activated SHP2 was monitored through Fluorescence measurement with a PerkinElmer Envision reader.
# (§4) A selection of compounds has been tested in a biochemical assay using same conditions as described in example 3, but with an auto-activated mutant protein SHP2 E76K with and without the addition of the activating peptide IRSI_2pY (New England Peptide, 140 nM).
# [7] = molecular target: T1, auto-activated mutant protein SHP2 E76K; assay: SHP2 E76K mutant biochemical assay without activating peptide; conditions: no activating peptide, read-out: SHP-2 E76Z IC50 No peptide
# Experimental: as §3, §4
# [8] = DiFMUP substrate, activating peptide IRSI_2pY, 60 min at RT, read-out: SHP-2 Biochemical assay IC50
# Sequence of Kv11.1 (hERG) ion channel (Q12809 whole entry): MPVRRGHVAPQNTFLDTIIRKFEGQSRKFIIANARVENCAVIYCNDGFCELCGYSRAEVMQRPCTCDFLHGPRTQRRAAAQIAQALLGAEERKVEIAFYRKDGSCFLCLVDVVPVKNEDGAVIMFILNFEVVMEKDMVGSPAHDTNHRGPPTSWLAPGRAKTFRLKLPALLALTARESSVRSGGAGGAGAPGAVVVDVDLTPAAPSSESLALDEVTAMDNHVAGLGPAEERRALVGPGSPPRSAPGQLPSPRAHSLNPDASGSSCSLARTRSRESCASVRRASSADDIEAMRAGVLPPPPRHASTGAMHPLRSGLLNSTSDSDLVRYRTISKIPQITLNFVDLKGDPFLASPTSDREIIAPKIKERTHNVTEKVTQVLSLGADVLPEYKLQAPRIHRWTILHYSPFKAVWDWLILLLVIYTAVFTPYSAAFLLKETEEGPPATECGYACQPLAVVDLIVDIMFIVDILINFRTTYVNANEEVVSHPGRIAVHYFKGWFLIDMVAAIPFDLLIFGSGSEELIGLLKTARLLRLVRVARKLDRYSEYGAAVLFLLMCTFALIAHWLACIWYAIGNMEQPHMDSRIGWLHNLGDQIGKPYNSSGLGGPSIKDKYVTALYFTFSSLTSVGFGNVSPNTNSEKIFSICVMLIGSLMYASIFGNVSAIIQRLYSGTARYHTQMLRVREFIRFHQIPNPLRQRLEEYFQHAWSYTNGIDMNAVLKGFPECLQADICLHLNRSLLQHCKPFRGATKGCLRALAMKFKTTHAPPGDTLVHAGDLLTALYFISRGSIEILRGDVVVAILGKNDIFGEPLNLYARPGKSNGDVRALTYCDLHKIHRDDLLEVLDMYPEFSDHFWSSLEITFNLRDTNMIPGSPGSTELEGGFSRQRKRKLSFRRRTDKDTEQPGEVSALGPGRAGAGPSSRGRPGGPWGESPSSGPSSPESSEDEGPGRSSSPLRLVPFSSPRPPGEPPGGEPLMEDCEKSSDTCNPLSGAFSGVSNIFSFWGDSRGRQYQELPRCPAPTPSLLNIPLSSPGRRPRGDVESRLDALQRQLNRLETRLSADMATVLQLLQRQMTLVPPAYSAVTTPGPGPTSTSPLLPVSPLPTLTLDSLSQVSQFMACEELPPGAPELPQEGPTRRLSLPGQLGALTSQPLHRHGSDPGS
"IC50 [2, 8] [nM]","IC50 ([3]; Homo sapiens, MDA-MB-468, 2 h) [nM]","IC50 ([5]; Homo sapiens, KYSE-520, 2 h) [nM]",Compound,Split between hErg and cell activity Ki(patch Clamp)/IC50 (KYSE) [1],further results
–,–,–,"Cc1nc(N2CCC3(CC2)Cc2ccccc2[C@H]3N)nc(C(N)=O)c1-c1cccc(Cl)c1Cl (atropisomer, axis not shown; (M)) [Compound 119, (M)-2-[(1S)-1-amino-1,3-dihydrospiro[indene-2,4′-piperidin]-1′-yl]-5-(2,3-dichlorophenyl)-6-methylpyrimidine-4-carboxamide]",97,–
82,342,1470,"CC1(N)CCN(c2nc(N)c(-c3cccc(Cl)c3Cl)c(C(N)=O)n2)CC1 (single isomer, unassigned) [Compound 27, (4P)-6-Amino-2-(4-amino-4-methyl-piperidin-1-yl)-5-(2,3-dichloro-phenyl)-pyrimidine-4-carboxylic Acid Amide]",–,clearance [4]: 37.3 mL/min/kg; Vd [4]: 8.7 L/kg; Clearance as compared to SHP-099 (in words) [4]: lower clearance; Exposure as compared to SHP-099 (in words) [4]: higher exposure
360,1630,11500,"Cc1nc(NC2CCCC(N)C2)nc(C(N)=O)c1-c1cccc(Cl)c1Cl (stereo not shown) [Compound 28, 2-(3-Amino-cyclohexyl-amino)-5-(2,3-dichloro-phenyl)-6-methyl-pyrimidine-4-carboxylic acid amide]",–,–
260,1170,7700,"NC(=O)c1nc(N2CCC(N)(CO)CC2)nc(N)c1-c1cccc(Cl)c1Cl [Compound 29, 6-amino-2-[4-amino-4-(hydroxymethyl)piperidin-1-yl]-5-(2,3-dichlorophenyl)-pyrimidine-4-carboxamide]",–,–
200,736,3610,"Cc1nc(N(C)C2CCC(N)CC2)nc(C(N)=O)c1-c1cccc(Cl)c1Cl (stereo not shown) [Compound 32, 2-[(4-Amino-cyclohexyl)-methyl-amino]-5-(2,3-dichlorophenyl)-6-methyl-pyrimidine-4-carboxylic acid amide]",–,–
310,908,2990,"CC1(CN)CCN(c2nc(N)c(-c3cccc(Cl)c3Cl)c(C(N)=O)n2)CC1 [Compound 41, 6-amino-2-[4-(aminomethyl)-4-methylpiperidin-1-yl]-5-(2,3-dichlorophenyl)pyrimidine-4-carboxamide]",–,–
170,646,2100,"Cc1nc(N2CCCC(C)(N)CC2)nc(C(N)=O)c1-c1cccc(Cl)c1Cl (stereo not shown) [Compound 45, 2-(4-Amino-4-methyl-azepan-1-yl)-5-(2,3-dichloro-phenyl)-6-methyl-pyrimidine-4-carboxylic acid amide]",–,–
120,683,2540,"NC(=O)c1nc(N2CCCC(N)CC2)nc(N)c1-c1cccc(Cl)c1Cl (stereo not shown) [Compound 49, 6-amino-2-(4-aminoazepan-1-yl)-5-(2,3-dichlorophenyl)-pyrimidine-4-carboxamide]",–,–
200,652,1300,"CCCC1(N)CCN(c2nc(N)c(-c3cccc(Cl)c3Cl)c(C(N)=O)n2)CC1 [Compound 53, 6-amino-2-(4-amino-4-propylpiperidin-1-yl)-5-(2,3-dichloro-phenyl)pyrimidine-4-carboxamide]",–,–
720,1720,11300,"Cc1nc(N2CCC(C)(N)CC2)nc(C(N)=O)c1-c1ccnc(Cl)c1Cl [Compound 81, 2-(4-Amino-4-methyl-piperidin-1-yl)-5-(2,3-dichloro-pyridin-4-yl)-6-methyl-pyrimidine-4-carboxylic acid amide]",–,–
66,670,596,"CN(c1nc(N)c(-c2cccc(Cl)c2Cl)c(C(N)=O)n1)[C@H]1CC[C@H](N)CC1 [Compound 112, 6-Amino-2-[(4-amino-cyclohexyl)-methyl-amino]-5-(2,3-dichloro-phenyl)-pyrimidine-4-carboxylic acid amide]",–,–
2,–,16,"NC(=O)c1nc(N2CCC3(CC2)Cc2scnc2[C@H]3N)nc(N)c1-c1cccc(Cl)c1Cl [Compound 121, 6-amino-2-[(4S)-4-amino-4,6-dihydrospiro[cyclopenta[d][1,3]thiazole-5,4′-piperidin]-1′-yl]-5-(2,3-dichlorophenyl)pyrimidine-4-carboxamide]",>600,–
160,–,–,"CC1(N)CCN(c2nc(N)c(-c3cccc(Cl)c3Cl)c(C(N)=O)n2)CC1 [Compound No. 3, 6-Amino-2-(4-amino-4-methyl-piperidin-1-yl)-5-(2,3-dichlorophenyl)-pyrimidine-4-carboxylic Acid Amide]",>14,IC50 [3]: 346 nM; IC50 [5]: 754 nM

Compound,"IC50 [2, 8] [nM]","IC50 ([3]; Homo sapiens, MDA-MB-468, 2 h) [nM]","IC50 ([5]; Homo sapiens, KYSE-520, 2 h) [nM]",Split between hErg and cell activity Ki(patch Clamp)/IC50 (KYSE) [1],further results
"Cc1nc(N2CCC3(CC2)CO[C@@H](C)[C@H]3N)nc(C(N)=O)c1-c1cccc(Cl)c1Cl (single isomer, unassigned) [Compound 95]",22,497,486,–,clearance [4]: 12.8 mL/min/kg; Vd [4]: 3.99 L/kg; Clearance as compared to SHP-099 (in words) [4]: lower clearance; Exposure as compared to SHP-099 (in words) [4]: higher exposure
"NC(=O)c1nc(N2CCC3(CC2)Cc2ccccc2[C@H]3N)nc(N)c1-c1cccc(Cl)c1Cl (single isomer, unassigned) [Compound 117]",1,–,–,>50,"IC50 ([2]; wild-type SHP-2 with activating peptide, read-out: SHP-2 IC50 peptide): 0.4 nM; IC50 [6]: 1.1 nM; IC50 [7]: 0.5 nM"
"Cc1nc(N2CCC3(CC2)CO[C@@H](C)[C@H]3N)nc(C(N)=O)c1-c1cccc(Cl)c1Cl [Compound 85, 2-[(3S,4S)-4-amino-3-methyl-2-oxa-8-azaspiro[4.5]decan-8-yl]-5-(2,3-dichlorophenyl)-6-methylpyrimidine-4-carboxamide]",48,407,1240,–,–
"NC(=O)c1nc(N2CCC3(CC2)Oc2ccccc2[C@H]3N)nc(N)c1-c1cccc(Cl)c1Cl [Compound 123, 6-amino-2-((R)-3-amino-3H-spiro[benzofuran-2,4′-piperidin]-1′-yl)-5-(2,3-dichlorophenyl)pyrimidine-4-carboxamide di-hydrochloride]",15,–,58,>100,–
"C[C@@H]1OCC2(CCN(c3nc(N)c(-c4cccc(Cl)c4Cl)c(C(N)=O)n3)CC2)[C@@H]1N [Compound No. 5, 6-amino-2-[(3S,4S)-4-amino-3-methyl-2-oxa-8-azaspiro[4.5]decan-8-yl]-5-(2,3-dichlorophenyl)pyrimidine-4-carboxamide]",72,1010,1090,>10,–

# From patent publication US11033547B2, “Carboxamide-pyrimidine derivatives as SHP2 antagonists” (Merck Patent GmbH, priority 2019, dated 2021)
